The structures appear in SMILES notation.

One series deals with cancer.
Test: not given
The following applies: Japanese Patent Laid-Open Publication No. 117435/1977; cited from earlier work.
With `CC(C)C[C@H](NC(=O)[C@@H](O)[C@H](N)Cc1ccccc1)C(=O)O` [bestatin, (2S,3R)-3-amino-2-hydroxy-4-phenylbutanoyl-(S)-leucine], the effects for cancer result is “inhibitive effects for cancer”.

Test system in the next series: not given
Test: not given
To be noted: isolated from culture filtrates of Streptomyces olivoreticuli; cited from earlier work.
Turning to `CC(C)C[C@H](NC(=O)[C@@H](O)[C@H](N)Cc1ccccc1)C(=O)O` [bestatin, (2S,3R)-3-amino-2-hydroxy-4-phenylbutanoyl-(S)-leucine], the toxicity entry is reported as “least toxic”.

Another series has as its target T1, aminopeptidase B (Rattus norvegicus, UniProt O09175).
T1 construct: an aminopeptidase B solution purified by the same enzyme purification process as in the process by Hopsu et al; from tissue
T1 sequence (O09175 1-650): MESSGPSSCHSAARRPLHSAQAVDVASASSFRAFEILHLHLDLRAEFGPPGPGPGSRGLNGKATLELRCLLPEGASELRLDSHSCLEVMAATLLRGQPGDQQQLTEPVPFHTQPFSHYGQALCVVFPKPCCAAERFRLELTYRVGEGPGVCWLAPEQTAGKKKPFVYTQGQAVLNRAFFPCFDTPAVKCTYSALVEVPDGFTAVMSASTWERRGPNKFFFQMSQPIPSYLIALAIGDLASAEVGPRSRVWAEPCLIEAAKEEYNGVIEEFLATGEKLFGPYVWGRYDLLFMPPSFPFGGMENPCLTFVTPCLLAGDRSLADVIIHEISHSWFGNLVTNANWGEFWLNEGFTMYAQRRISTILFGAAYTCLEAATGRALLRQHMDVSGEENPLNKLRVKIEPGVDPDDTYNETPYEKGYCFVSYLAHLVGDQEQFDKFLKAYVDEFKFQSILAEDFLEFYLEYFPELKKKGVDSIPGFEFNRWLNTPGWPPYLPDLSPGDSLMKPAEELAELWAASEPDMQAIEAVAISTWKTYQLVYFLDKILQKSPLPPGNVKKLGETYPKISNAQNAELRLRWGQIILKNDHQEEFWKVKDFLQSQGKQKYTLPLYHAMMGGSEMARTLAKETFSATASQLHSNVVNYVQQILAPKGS
Test: not given
To be noted: U.S. Pat. No. 4,029,547; cited from earlier work.
On to `CC(C)C[C@H](NC(=O)[C@@H](O)[C@H](N)Cc1ccccc1)C(=O)O` [bestatin, (2S,3R)-3-amino-2-hydroxy-4-phenylbutanoyl-(S)-leucine], for which the “aminopeptidase B inhibitor” value was “aminopeptidase B inhibitor”.

The target in a further series is T1, aminopeptidase B. The series is described as follows: Inhibitory Activity to Aminopeptidase B. Type of series: biochemical. The following applies: pH 7.0, 37° C., 30 minutes, substrate arginine-β-naphthylamide; read-out: IC50 (50% inhibitory ratio) (converted). The method, then:
Measurement for the inhibitory activity to aminopeptisase B was conducted by the method reported by Hopsu et al. while somewhat modifying the process [V. K. Hopsu, K. K. Makinen, G. G. Glenner; Archives of Biochemistry and Biophysics, 114, 557 (1966)].
A mixed solution (pH 7.0) prepared by adding 1.0 ml of a 0.1 M tris-hydrochloric acid buffer solution and 0.7 ml of a solution containing a test specimen to 0.3 ml of 0.1 mM arginine-β-naphthylamide was heated at 37° C. for 4 minutes. Thereafter, 0.2 ml of an aminopeptidase B solution purified by the same enzyme purification process as in the process by Hopsu et al. using Sephadex G-100 (registered Trademark) was added and reacted at 37° C. for 30 minutes. Then, 0.6 ml of a 1.0 M acetic acid buffer solution (pH 4.2) containing Garnet GBC (o-aminoazotoluenediazonium salt) at 1.0 mg/ml concentration and containing Tween 20 (registered trademark) at 1.0% concentration was further added and left for 15 minutes at room temperature, after which absorption ratio (a) at 530 nm was measured. The absorption ratio (b) for the blind solution using only the buffer solution containing no specimen was simultaneously mesured, and the inhibitory ratio to aminopeptidase B was calculated as (b-a)/b×100.
Inhibitory ratios for each of the specimens at several concentrations were determined by the above test method, from which 50% inhibitory ratios (IC50) were deduced.
`CC(C)C[C@H](NC(=O)C(O)C(N)Cc1cccc(O)c1)C(=O)O` (stereo partly drawn) [No. 16, Threo-(2RS)-3-amino-2-hydroxy-4-(3-hydroxyphenyl)butanoyl-(S)-leucine]: the IC50 is 0.277 µM.
On the same count and under the same terms, then `CC[C@H](C)[C@H](NC(=O)C(O)C(N)Cc1ccc2ccccc2c1)C(=O)O` (stereo partly drawn) [No. 13, Threo-(2RS)-3-amino-2-hydroxy-4-(2-naphthyl)butanoyl-(S)-isoleucine], with 0.0837 µM; and `CC(C)C[C@H](NC(=O)C(O)C(N)Cc1ccc(F)cc1)C(=O)O` (stereo partly drawn) [No. 12, Threo-(2RS)-3-amino-2-hydroxy-4-(4-fluorophenyl)butanoyl-(S)-leucine], with 0.0919 µM.
`CC(C)COc1ccc(CC(N)C(O)C(=O)N[C@@H](CC(C)C)C(=O)O)cc1` (stereo partly drawn) [No. 11, Threo-(2RS)-3-amino-2-hydroxy-4-(4-iso-butoxyphenyl)butanoyl-(S)-leucine]: the IC50 was 11.8 µM.
With `CC(C)C[C@H](NC(=O)C(O)C(N)Cc1ccc(-c2ccccc2)cc1)C(=O)O` (stereo partly drawn) [No. 6, Threo-(2RS)-3-amino-2-hydroxy-4-(4-phenylphenyl)butanoyl-(S)-leucine], the IC50 was 9.36 µM.
On the same count and under the same terms, the figure for `CC(C)C[C@H](NC(=O)C(O)C(N)Cc1ccccc1O)C(=O)O` (stereo partly drawn) [No. 15, Threo-(2RS)-3-amino-2-hydroxy-4-(2-hydroxyphenyl)butanoyl-(S)-leucine] is 1.63 µM.
On to `COc1ccccc1CC(N)C(O)C(=O)N[C@@H](CC(C)C)C(=O)O` (stereo partly drawn) [No. 2, Threo-(2RS)-3-amino-2-hydroxy-4-(2-methoxyphenyl)butanoyl-(S)-leucine], for which the IC50 was 8.57 µM.
Still for that read-out and setting: then `CC(C)C[C@H](NC(=O)C(O)C(N)Cc1ccc(C(C)C)cc1)C(=O)O` (stereo partly drawn) [compound 7], with 0.342 µM.
As to `CC(C)C[C@H](NC(=O)C(O)C(N)Cc1cccc2ccccc12)C(=O)O` (stereo partly drawn) [No. 4, Threo-(2RS)-3-amino-2-hydroxy-4-(1-naphthyl)butanoyl-(S)-leucine], the IC50 was 4.18 µM.
In the case of `CC(C)C[C@H](NC(=O)C(O)C(N)Cc1ccc2ccccc2c1)C(=O)O` (stereo partly drawn) [No. 5, Threo-(2RS)-3-amino-2-hydroxy-4-(2-naphthyl)butanoyl-(S)-leucine], the IC50 was 0.279 µM.
As to `CC(C)Cc1ccc(CC(N)C(O)C(=O)N[C@@H](CC(C)C)C(=O)O)cc1` (stereo partly drawn) [No. 8, Threo-(2RS)-3-amino-2-hydroxy-4-(4-iso-butylphenyl)butanoyl-(S)-leucine], the IC50 is 7.68 µM.
On to `CC(C)C[C@H](NC(=O)C(O)C(N)Cc1ccc(OC(C)C)cc1)C(=O)O` (stereo partly drawn) [No. 10, Threo-(2RS)-3-amino-2-hydroxy-4-(4-iso-propoxyphenyl)butanoyl-(S)-leucine], for which the IC50 was 18.6 µM.
For the molecule `CC(C)C[C@H](NC(=O)C(O)C(N)Cc1ccc(O)c(O)c1)C(=O)O` (stereo partly drawn) [No. 9, Threo-(2RS)-3-amino-2-hydroxy-4-(3,4-dihydroxyphenyl)butanoyl-(S)-leucine], the IC50 is 5.29 µM.
In the case of `COc1ccc(C[C@@H](N)[C@H](O)C(=O)N[C@@H](CC(C)C)C(=O)O)cc1` [No. 1, (2S,3R)-3-amino-2-hydroxy-4-(4-methoxyphenyl)butanoyl-(S)-leucine], the IC50 is 0.0177 µM.
With `COc1ccc(C[C@@H](N)[C@H](O)C(=O)N[C@H](C(=O)O)C(C)C)cc1` [No. 14, (2S,3R)-3-amino-2-hydroxy-4-(4-methoxyphenyl)butanoyl-(S)-valine], the IC50 is 0.216 µM.
Regarding `COc1cccc(CC(N)C(O)C(=O)N[C@@H](CC(C)C)C(=O)O)c1` (stereo partly drawn) [No. 3, Threo-(2RS)-3-amino-2-hydroxy-4-(3-methoxyphenyl)butanoyl-(S)-leucine], the IC50 was 0.118 µM.

The next series relates to immunoresponse.
Test: not given
The following applies: Japanese Patent Laid-Open Publication No. 117435/1977; cited from earlier work.
For the molecule `CC(C)C[C@H](NC(=O)[C@@H](O)[C@H](N)Cc1ccccc1)C(=O)O` [bestatin, (2S,3R)-3-amino-2-hydroxy-4-phenylbutanoyl-(S)-leucine], the “effect to immunoresponse such as delayed hypersthesia” value is listed as “increasing effect to immunoresponse such as delayed hypersthesia” and the “in vivo defense mechanism” value was “activate in vivo defense mechanism”.

These data come from US4281180A, “Process for producing threo-3-amino-2-hydroxybutanoyl-aminoacetic acids, as well as novel intermediated therefor and process for producing them” (Nippon Kayaku Kabushiki Kaisha, priority 1978, dated 1981).
